{"source": "paper PMC5663395", "about": "“Chemical Validation of Methionyl-tRNA Synthetase as a Druggable Target in Leishmania donovani” (ACS Infectious Diseases, 2017)", "experiment": "LogD measurement (Sirius T3, potentiometric)", "assay_type": "physicochemical", "conditions": "octanol/water", "method": "calculated, both in terms of pEC50 values. MIC (minimum inhibitory concentration) values are defined as the lowest concentration tested at which maximal inhibition is reached.\nTHP-1 cells were differentiated in 96-well plates with PMA as described above. Following differentiation the cells were treated for 30 min with dose-response curves of test compounds in presence of 100 nM LysoTracker Red DND-99 (Thermo Fisher) and 5 µg/ml Hoechst 33342. Next cells were washed 3 times with Hanks Buffered Saline Solution (Gibco) and imaged on a Perkin Elmer Operetta system. An image analysis algorithm to measure mean Lysotracker Red DND-99 intensity per cell was developed in Columbus. […]\nTo measure the pKa of DDD806905, a fast UV-metric method was performed using a Sirius T3 instrument (Sirius Analytical, U.K.). The calculation of the pKa was determined using the Sirius T3 refine software (Sirius Analytical, U.K.). In brief, the UV-metric pKa method is based on measuring pH during an acid-base titration and monitoring UV absorbance shift. […] The appearance of precipitate was monitored throughout the experiment by a turbidity sensing device. […] The pKas of DDD806905 was determined at the pH where there was maximal change in UV absorbance with respect to pH. […]\nLogD7.4 values were quantified using a Sirius T3 instrument (Sirius Analytical, U.K.). […]\nwhich gave the best fit to the data was then recorded as the logP. […]", "note": "Read-outs that look alike come from different tables or passages of the source."}
{"smiles": "Cl.Cl.O=c1nc(NCCCNCc2cc3c(Cl)cc(Cl)cc3[nH]2)[nH]c2ccccc12", "note": "[DDD806905, 2-((3-(((4,6-dichloro-1H-indol-2-yl)methyl)amino)propyl)amino)quinazolin-4(1H)-one dihydrochloride]", "values": [{"measurement": "logD", "setting": "pH 5.6, read-out: log D5.6", "result": 0.3}, {"measurement": "logD", "setting": "pH 7.3, read-out: log D7.3", "result": 2.6}]}
